{"source": "the kinase profiling compilation of Christmann-Franck et al. (2016)", "assay_in_all_cases": "KINOMEscan competition binding", "conditions_in_all_cases": "compound 10.0 µM", "key": {"LATS2 (human)": {"target": "LATS2 (human) (UniProt Q9NRM7)"}, "CSNK1D (human)": {"target": "CSNK1D (human) (UniProt P48730)"}, "MINK1 (human)": {"target": "MINK1 (human) (UniProt Q8N4C8)"}, "RPS6KA2 KD1 (human)": {"target": "RPS6KA2 KD1 (human) (UniProt Q15349)", "sequence (Q15349 whole entry, looked up)": "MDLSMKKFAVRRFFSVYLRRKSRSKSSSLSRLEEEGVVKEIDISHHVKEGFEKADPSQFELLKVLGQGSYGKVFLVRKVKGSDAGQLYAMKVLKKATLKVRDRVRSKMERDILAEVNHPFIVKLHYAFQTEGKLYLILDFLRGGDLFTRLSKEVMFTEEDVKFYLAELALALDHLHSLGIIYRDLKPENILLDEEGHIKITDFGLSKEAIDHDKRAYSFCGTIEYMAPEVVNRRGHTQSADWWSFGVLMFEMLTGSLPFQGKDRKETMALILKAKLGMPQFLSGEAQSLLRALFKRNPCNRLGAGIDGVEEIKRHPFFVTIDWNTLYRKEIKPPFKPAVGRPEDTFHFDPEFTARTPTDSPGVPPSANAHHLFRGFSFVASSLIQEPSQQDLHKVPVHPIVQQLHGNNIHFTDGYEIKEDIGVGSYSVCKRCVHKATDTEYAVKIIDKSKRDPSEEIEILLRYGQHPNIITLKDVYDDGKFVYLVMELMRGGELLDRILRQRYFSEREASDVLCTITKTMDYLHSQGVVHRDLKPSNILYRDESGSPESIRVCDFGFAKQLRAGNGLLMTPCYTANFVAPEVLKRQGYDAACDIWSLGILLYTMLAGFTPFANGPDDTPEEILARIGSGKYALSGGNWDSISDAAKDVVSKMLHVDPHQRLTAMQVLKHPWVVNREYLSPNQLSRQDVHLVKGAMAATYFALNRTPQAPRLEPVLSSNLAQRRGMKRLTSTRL"}, "CDK11B (human)": {"target": "CDK11B (human) (UniProt P21127)"}, "CIT (human)": {"target": "CIT (human) (UniProt O14578)"}, "EIF2AK1 (human)": {"target": "EIF2AK1 (human) (UniProt Q9BQI3)"}, "PRPF4B (human)": {"target": "PRPF4B (human) (UniProt Q13523)"}, "CSNK1G1 (human)": {"target": "CSNK1G1 (human) (UniProt Q9HCP0)"}, "STK11 (human)": {"target": "STK11 (human) (UniProt Q15831)"}, "STK25 (human)": {"target": "STK25 (human) (UniProt O00506)"}, "MKNK1 (human)": {"target": "MKNK1 (human) (UniProt Q9BUB5)", "sequence (Q9BUB5 whole entry, looked up)": "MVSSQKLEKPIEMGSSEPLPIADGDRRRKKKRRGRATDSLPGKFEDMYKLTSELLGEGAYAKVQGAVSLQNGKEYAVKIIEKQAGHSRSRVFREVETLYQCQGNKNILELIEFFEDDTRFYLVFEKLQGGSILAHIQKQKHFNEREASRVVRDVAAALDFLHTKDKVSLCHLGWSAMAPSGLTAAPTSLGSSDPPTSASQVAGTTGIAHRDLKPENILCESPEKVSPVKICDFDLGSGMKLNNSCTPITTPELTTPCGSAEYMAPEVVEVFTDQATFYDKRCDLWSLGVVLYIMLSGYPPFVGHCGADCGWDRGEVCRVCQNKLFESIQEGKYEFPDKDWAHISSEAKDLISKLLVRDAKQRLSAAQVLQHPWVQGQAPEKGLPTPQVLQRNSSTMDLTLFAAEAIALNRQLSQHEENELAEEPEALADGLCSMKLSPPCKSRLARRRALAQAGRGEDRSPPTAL"}, "CDK14 (human)": {"target": "CDK14 (human) (UniProt O94921)"}, "CDK18 (human)": {"target": "CDK18 (human) (UniProt Q07002)"}, "ROCK2 (human)": {"target": "ROCK2 (human) (UniProt O75116)", "sequence (O75116 whole entry, looked up)": "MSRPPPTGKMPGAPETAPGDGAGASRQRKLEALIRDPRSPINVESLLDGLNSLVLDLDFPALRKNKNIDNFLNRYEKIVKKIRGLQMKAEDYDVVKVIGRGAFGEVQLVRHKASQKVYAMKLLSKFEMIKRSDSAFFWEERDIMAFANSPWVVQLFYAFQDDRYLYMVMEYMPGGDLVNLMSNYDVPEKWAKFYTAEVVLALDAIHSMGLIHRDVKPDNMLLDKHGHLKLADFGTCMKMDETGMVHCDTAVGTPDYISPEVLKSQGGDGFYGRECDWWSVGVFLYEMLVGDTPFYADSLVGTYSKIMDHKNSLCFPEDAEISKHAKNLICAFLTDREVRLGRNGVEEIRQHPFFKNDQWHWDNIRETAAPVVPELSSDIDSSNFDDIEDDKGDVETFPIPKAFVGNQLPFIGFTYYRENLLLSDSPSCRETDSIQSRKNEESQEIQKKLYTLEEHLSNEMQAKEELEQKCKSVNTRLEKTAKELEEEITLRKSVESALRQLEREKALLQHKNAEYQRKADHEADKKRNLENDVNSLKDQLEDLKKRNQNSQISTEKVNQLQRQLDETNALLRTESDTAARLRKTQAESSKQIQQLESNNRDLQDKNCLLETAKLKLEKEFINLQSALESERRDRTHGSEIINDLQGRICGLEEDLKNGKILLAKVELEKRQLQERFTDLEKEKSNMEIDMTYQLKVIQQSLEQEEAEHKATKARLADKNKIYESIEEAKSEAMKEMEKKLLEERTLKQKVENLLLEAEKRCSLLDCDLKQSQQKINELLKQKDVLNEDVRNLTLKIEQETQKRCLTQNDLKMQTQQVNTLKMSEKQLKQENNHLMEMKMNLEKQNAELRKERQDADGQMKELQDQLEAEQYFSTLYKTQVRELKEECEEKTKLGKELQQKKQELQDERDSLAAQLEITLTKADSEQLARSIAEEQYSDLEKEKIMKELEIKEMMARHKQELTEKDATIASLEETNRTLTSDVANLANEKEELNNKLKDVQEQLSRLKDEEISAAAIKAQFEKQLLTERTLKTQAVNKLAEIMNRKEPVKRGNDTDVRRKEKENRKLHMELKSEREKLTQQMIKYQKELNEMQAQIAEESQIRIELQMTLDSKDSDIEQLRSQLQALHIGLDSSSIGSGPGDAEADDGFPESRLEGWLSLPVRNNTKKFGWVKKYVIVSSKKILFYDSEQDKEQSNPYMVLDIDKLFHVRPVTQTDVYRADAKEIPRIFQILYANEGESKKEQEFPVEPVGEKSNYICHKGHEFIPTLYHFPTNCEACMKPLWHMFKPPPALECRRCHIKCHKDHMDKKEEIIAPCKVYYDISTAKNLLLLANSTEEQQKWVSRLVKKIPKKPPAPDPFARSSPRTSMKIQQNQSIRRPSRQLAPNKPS"}, "PAK3 (human)": {"target": "PAK3 (human) (UniProt O75914)"}, "CDK16 (human)": {"target": "CDK16 (human) (UniProt Q00536)"}, "SRPK1 (human)": {"target": "SRPK1 (human) (UniProt Q96SB4)", "sequence (Q96SB4 whole entry, looked up)": "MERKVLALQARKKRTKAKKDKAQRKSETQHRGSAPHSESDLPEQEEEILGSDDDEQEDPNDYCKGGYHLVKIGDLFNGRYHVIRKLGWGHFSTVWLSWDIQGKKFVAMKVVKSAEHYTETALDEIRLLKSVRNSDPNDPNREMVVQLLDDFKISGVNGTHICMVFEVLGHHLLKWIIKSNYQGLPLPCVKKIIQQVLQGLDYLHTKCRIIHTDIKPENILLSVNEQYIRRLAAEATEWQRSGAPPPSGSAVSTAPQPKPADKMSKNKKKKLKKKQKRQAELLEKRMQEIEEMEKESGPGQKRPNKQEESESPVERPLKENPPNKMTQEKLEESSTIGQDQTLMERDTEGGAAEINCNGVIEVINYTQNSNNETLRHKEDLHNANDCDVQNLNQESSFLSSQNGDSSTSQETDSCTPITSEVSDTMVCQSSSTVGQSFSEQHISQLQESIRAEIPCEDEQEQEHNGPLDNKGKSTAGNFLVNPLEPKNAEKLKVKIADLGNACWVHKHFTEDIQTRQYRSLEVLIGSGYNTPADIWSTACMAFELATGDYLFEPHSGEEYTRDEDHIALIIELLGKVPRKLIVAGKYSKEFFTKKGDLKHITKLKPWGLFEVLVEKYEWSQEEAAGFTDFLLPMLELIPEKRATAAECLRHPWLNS"}, "KDR (human)": {"target": "KDR (human) (UniProt P35968)"}, "PAK2 (human)": {"target": "PAK2 (human) (UniProt Q13177)"}, "CDC42BPB (human)": {"target": "CDC42BPB (human) (UniProt Q9Y5S2)"}, "MAPK13 (human)": {"target": "MAPK13 (human) (UniProt O15264)"}, "STK38 (human)": {"target": "STK38 (human) (UniProt Q15208)"}, "MST1R (human)": {"target": "MST1R (human) (UniProt Q04912)"}, "CSNK1A1 (human)": {"target": "CSNK1A1 (human) (UniProt P48729)"}, "PRKG2 (human)": {"target": "PRKG2 (human) (UniProt Q13237)"}, "PIK3C2B (human)": {"target": "PIK3C2B (human) (UniProt O00750)"}, "PIK3CA (human)": {"target": "PIK3CA (human) (UniProt P42336)"}, "GSK3A (human)": {"target": "GSK3A (human) (UniProt P49840)"}, "STK38L (human)": {"target": "STK38L (human) (UniProt Q9Y2H1)", "sequence (Q9Y2H1 whole entry, looked up)": "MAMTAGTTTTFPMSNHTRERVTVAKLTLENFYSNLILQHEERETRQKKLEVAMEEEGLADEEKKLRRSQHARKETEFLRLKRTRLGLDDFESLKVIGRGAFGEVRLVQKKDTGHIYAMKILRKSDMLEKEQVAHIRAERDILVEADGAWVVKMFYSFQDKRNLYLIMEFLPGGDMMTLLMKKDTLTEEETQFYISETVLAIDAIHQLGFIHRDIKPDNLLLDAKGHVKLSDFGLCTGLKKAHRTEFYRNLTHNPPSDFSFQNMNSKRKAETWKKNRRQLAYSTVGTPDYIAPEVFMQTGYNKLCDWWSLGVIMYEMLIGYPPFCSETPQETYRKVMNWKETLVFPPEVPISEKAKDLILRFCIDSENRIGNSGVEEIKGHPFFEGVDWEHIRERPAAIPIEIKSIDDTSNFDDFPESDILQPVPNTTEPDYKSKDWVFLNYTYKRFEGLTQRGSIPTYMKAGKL"}, "CDKL3 (human)": {"target": "CDKL3 (human) (UniProt Q8IVW4)"}, "EGFR (human)": {"target": "EGFR (human) (UniProt P00533)"}, "TLK2 (human)": {"target": "TLK2 (human) (UniProt Q86UE8)", "sequence (Q86UE8 whole entry, looked up)": "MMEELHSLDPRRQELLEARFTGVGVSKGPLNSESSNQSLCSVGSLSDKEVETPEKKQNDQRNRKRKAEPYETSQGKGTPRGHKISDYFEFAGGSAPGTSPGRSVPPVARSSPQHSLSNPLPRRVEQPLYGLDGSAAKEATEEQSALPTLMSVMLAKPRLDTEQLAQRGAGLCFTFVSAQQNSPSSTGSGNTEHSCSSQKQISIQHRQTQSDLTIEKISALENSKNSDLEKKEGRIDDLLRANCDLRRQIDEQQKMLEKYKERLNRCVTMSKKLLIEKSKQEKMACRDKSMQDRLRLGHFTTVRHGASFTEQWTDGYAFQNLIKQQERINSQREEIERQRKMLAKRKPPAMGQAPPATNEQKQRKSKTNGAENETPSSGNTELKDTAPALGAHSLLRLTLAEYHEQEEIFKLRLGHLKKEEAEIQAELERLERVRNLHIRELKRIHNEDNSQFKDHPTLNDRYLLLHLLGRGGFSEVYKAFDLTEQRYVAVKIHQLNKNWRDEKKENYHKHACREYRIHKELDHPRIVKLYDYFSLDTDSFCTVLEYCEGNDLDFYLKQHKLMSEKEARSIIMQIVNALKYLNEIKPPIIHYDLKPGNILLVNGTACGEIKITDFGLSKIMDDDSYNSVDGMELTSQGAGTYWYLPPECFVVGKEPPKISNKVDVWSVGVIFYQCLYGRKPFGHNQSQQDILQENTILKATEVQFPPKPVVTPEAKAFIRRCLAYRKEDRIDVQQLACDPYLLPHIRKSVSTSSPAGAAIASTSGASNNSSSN"}, "PDPK1 (human)": {"target": "PDPK1 (human) (UniProt O15530)"}, "IKBKB (human)": {"target": "IKBKB (human) (UniProt O14920)"}, "LYN (human)": {"target": "LYN (human) (UniProt P07948)"}, "CDKL2 (human)": {"target": "CDKL2 (human) (UniProt Q92772)"}, "DCLK2 (human)": {"target": "DCLK2 (human) (UniProt Q8N568)"}, "CDK8 (human)": {"target": "CDK8 (human) (UniProt P49336)", "sequence (P49336 whole entry, looked up)": "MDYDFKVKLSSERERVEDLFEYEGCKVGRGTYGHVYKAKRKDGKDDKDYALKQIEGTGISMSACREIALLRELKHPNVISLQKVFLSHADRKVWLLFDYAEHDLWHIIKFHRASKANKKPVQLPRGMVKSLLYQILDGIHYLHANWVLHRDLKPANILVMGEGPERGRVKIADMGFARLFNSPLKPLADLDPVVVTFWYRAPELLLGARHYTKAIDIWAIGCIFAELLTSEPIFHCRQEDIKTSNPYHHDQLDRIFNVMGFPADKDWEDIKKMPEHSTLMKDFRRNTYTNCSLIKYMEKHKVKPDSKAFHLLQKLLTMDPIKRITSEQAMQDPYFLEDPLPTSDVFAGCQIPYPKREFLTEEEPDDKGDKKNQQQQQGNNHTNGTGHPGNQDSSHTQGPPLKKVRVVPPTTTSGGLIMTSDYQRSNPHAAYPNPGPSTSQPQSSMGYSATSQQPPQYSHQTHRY"}, "ULK2 (human)": {"target": "ULK2 (human) (UniProt Q8IYT8)"}}}
{"molecule": "C=CC(=O)Nc1cc(-n2c(=O)ccc3cnc4ccc(-c5cn[nH]c5)cc4c32)ccc1C", "values": [{"measurement": "kinase still bound, per cent of control", "setting": "LATS2 (human)", "result": 53, "unit": "%"}, {"measurement": "kinase still bound, per cent of control", "setting": "CSNK1D (human)", "result": 47, "unit": "%"}, {"measurement": "kinase still bound, per cent of control", "setting": "MINK1 (human)", "result": 31, "unit": "%"}, {"measurement": "kinase still bound, per cent of control", "setting": "RPS6KA2 KD1 (human)", "result": 72, "unit": "%"}, {"measurement": "kinase still bound, per cent of control", "setting": "CDK11B (human)", "result": 100, "unit": "%"}, {"measurement": "kinase still bound, per cent of control", "setting": "CIT (human)", "result": 42, "unit": "%"}, {"measurement": "kinase still bound, per cent of control", "setting": "EIF2AK1 (human)", "result": 100, "unit": "%"}, {"measurement": "kinase still bound, per cent of control", "setting": "PRPF4B (human)", "result": 84, "unit": "%"}, {"measurement": "kinase still bound, per cent of control", "setting": "CSNK1G1 (human)", "result": 86, "unit": "%"}, {"measurement": "kinase still bound, per cent of control", "setting": "STK11 (human)", "result": 100, "unit": "%"}, {"measurement": "kinase still bound, per cent of control", "setting": "STK25 (human)", "result": 70, "unit": "%"}, {"measurement": "kinase still bound, per cent of control", "setting": "MKNK1 (human)", "result": 39, "unit": "%"}, {"measurement": "kinase still bound, per cent of control", "setting": "CDK14 (human)", "result": 60, "unit": "%"}, {"measurement": "kinase still bound, per cent of control", "setting": "CDK18 (human)", "result": 88, "unit": "%"}, {"measurement": "kinase still bound, per cent of control", "setting": "ROCK2 (human)", "result": 72, "unit": "%"}, {"measurement": "kinase still bound, per cent of control", "setting": "PAK3 (human)", "result": 81, "unit": "%"}, {"measurement": "kinase still bound, per cent of control", "setting": "CDK16 (human)", "result": 97, "unit": "%"}, {"measurement": "kinase still bound, per cent of control", "setting": "SRPK1 (human)", "result": 39, "unit": "%"}, {"measurement": "kinase still bound, per cent of control", "setting": "KDR (human)", "result": 50, "unit": "%"}, {"measurement": "kinase still bound, per cent of control", "setting": "PAK2 (human)", "result": 87, "unit": "%"}, {"measurement": "kinase still bound, per cent of control", "setting": "CDC42BPB (human)", "result": 97, "unit": "%"}, {"measurement": "kinase still bound, per cent of control", "setting": "MAPK13 (human)", "result": 76, "unit": "%"}, {"measurement": "kinase still bound, per cent of control", "setting": "STK38 (human)", "result": 87, "unit": "%"}, {"measurement": "kinase still bound, per cent of control", "setting": "MST1R (human)", "result": 99, "unit": "%"}, {"measurement": "kinase still bound, per cent of control", "setting": "CSNK1A1 (human)", "result": 81, "unit": "%"}, {"measurement": "kinase still bound, per cent of control", "setting": "PRKG2 (human)", "result": 78, "unit": "%"}, {"measurement": "kinase still bound, per cent of control", "setting": "PIK3C2B (human)", "result": 53, "unit": "%"}, {"measurement": "kinase still bound, per cent of control", "setting": "PIK3CA (human)", "result": 24, "unit": "%"}, {"measurement": "kinase still bound, per cent of control", "setting": "GSK3A (human)", "result": 13, "unit": "%"}, {"measurement": "kinase still bound, per cent of control", "setting": "STK38L (human)", "result": 100, "unit": "%"}, {"measurement": "kinase still bound, per cent of control", "setting": "CDKL3 (human)", "result": 33, "unit": "%"}, {"measurement": "kinase still bound, per cent of control", "setting": "EGFR (human)", "result": 30, "unit": "%"}, {"measurement": "kinase still bound, per cent of control", "setting": "TLK2 (human)", "result": 100, "unit": "%"}, {"measurement": "kinase still bound, per cent of control", "setting": "PDPK1 (human)", "result": 100, "unit": "%"}, {"measurement": "kinase still bound, per cent of control", "setting": "IKBKB (human)", "result": 73, "unit": "%"}, {"measurement": "kinase still bound, per cent of control", "setting": "LYN (human)", "result": 100, "unit": "%"}, {"measurement": "kinase still bound, per cent of control", "setting": "CDKL2 (human)", "result": 17, "unit": "%"}, {"measurement": "kinase still bound, per cent of control", "setting": "DCLK2 (human)", "result": 100, "unit": "%"}, {"measurement": "kinase still bound, per cent of control", "setting": "CDK8 (human)", "result": 93, "unit": "%"}, {"measurement": "kinase still bound, per cent of control", "setting": "ULK2 (human)", "result": 81, "unit": "%"}]}
{"molecule": "O=c1cc(N2CCOCC2)oc2c(-c3cccc4c3sc3ccccc34)cccc12", "values": [{"measurement": "kinase still bound, per cent of control", "setting": "LATS2 (human)", "result": 100, "unit": "%"}, {"measurement": "kinase still bound, per cent of control", "setting": "CSNK1D (human)", "result": 89, "unit": "%"}, {"measurement": "kinase still bound, per cent of control", "setting": "MINK1 (human)", "result": 100, "unit": "%"}, {"measurement": "kinase still bound, per cent of control", "setting": "RPS6KA2 KD1 (human)", "result": 97, "unit": "%"}, {"measurement": "kinase still bound, per cent of control", "setting": "CDK11B (human)", "result": 95, "unit": "%"}, {"measurement": "kinase still bound, per cent of control", "setting": "CIT (human)", "result": 85, "unit": "%"}, {"measurement": "kinase still bound, per cent of control", "setting": "EIF2AK1 (human)", "result": 100, "unit": "%"}, {"measurement": "kinase still bound, per cent of control", "setting": "PRPF4B (human)", "result": 78, "unit": "%"}, {"measurement": "kinase still bound, per cent of control", "setting": "CSNK1G1 (human)", "result": 92, "unit": "%"}, {"measurement": "kinase still bound, per cent of control", "setting": "STK11 (human)", "result": 75, "unit": "%"}, {"measurement": "kinase still bound, per cent of control", "setting": "STK25 (human)", "result": 59, "unit": "%"}, {"measurement": "kinase still bound, per cent of control", "setting": "MKNK1 (human)", "result": 100, "unit": "%"}, {"measurement": "kinase still bound, per cent of control", "setting": "CDK14 (human)", "result": 100, "unit": "%"}, {"measurement": "kinase still bound, per cent of control", "setting": "CDK18 (human)", "result": 100, "unit": "%"}, {"measurement": "kinase still bound, per cent of control", "setting": "ROCK2 (human)", "result": 100, "unit": "%"}, {"measurement": "kinase still bound, per cent of control", "setting": "PAK3 (human)", "result": 100, "unit": "%"}, {"measurement": "kinase still bound, per cent of control", "setting": "CDK16 (human)", "result": 97, "unit": "%"}, {"measurement": "kinase still bound, per cent of control", "setting": "SRPK1 (human)", "result": 100, "unit": "%"}, {"measurement": "kinase still bound, per cent of control", "setting": "KDR (human)", "result": 100, "unit": "%"}, {"measurement": "kinase still bound, per cent of control", "setting": "PAK2 (human)", "result": 61, "unit": "%"}, {"measurement": "kinase still bound, per cent of control", "setting": "CDC42BPB (human)", "result": 88, "unit": "%"}, {"measurement": "kinase still bound, per cent of control", "setting": "MAPK13 (human)", "result": 99, "unit": "%"}, {"measurement": "kinase still bound, per cent of control", "setting": "STK38 (human)", "result": 100, "unit": "%"}, {"measurement": "kinase still bound, per cent of control", "setting": "MST1R (human)", "result": 97, "unit": "%"}, {"measurement": "kinase still bound, per cent of control", "setting": "CSNK1A1 (human)", "result": 78, "unit": "%"}, {"measurement": "kinase still bound, per cent of control", "setting": "PRKG2 (human)", "result": 93, "unit": "%"}, {"measurement": "kinase still bound, per cent of control", "setting": "PIK3C2B (human)", "result": 20, "unit": "%"}, {"measurement": "kinase still bound, per cent of control", "setting": "PIK3CA (human)", "result": 22, "unit": "%"}, {"measurement": "kinase still bound, per cent of control", "setting": "GSK3A (human)", "result": 78, "unit": "%"}, {"measurement": "kinase still bound, per cent of control", "setting": "STK38L (human)", "result": 95, "unit": "%"}, {"measurement": "kinase still bound, per cent of control", "setting": "CDKL3 (human)", "result": 100, "unit": "%"}, {"measurement": "kinase still bound, per cent of control", "setting": "EGFR (human)", "result": 94, "unit": "%"}, {"measurement": "kinase still bound, per cent of control", "setting": "TLK2 (human)", "result": 80, "unit": "%"}, {"measurement": "kinase still bound, per cent of control", "setting": "PDPK1 (human)", "result": 95, "unit": "%"}, {"measurement": "kinase still bound, per cent of control", "setting": "IKBKB (human)", "result": 100, "unit": "%"}, {"measurement": "kinase still bound, per cent of control", "setting": "LYN (human)", "result": 95, "unit": "%"}, {"measurement": "kinase still bound, per cent of control", "setting": "CDKL2 (human)", "result": 96, "unit": "%"}, {"measurement": "kinase still bound, per cent of control", "setting": "DCLK2 (human)", "result": 100, "unit": "%"}, {"measurement": "kinase still bound, per cent of control", "setting": "CDK8 (human)", "result": 100, "unit": "%"}, {"measurement": "kinase still bound, per cent of control", "setting": "ULK2 (human)", "result": 98, "unit": "%"}]}
